Source: patent US5637570A, “Disubstituted and trisubstituted derivatives of 2,3:4,6-di-O-isopropylidene-α-L-xylo-2-hexulofuranosonic acid having anti-cancer, anti-inflammatory and anti-proliferative activity” (Chemora Pharmochem, priority 1995, dated 1997)
Where two headings read alike, the source gives them in different places.

Experiments:
[1] = system: mouse spleen cell (T-lymphocyte); test: Concanavalin A (CON-A) assay, mouse spleen cell mitogen induced blastogenesis; assay type: cell-based; conditions: Anti-inflammatory/Anti-proliferative Activity
Source text: iii Concanavalin A assay (the mouse spleen cell mitogen induced blastogenesis).
(§1) The MLR assay measures the effects of a study compound on the activation and antigen presentation of T-lymphocytes, therefore determining immunomodulatory properties. The mouse spleen cell mitogen-induced blastogenesis and the BUD-8 human fibroblast proliferation assays measure the effects of the compounds of the present invention on cellular proliferation of cells involved in the pathogenesis of autoimmune diseases. These two assays are appropriate as screens to ascertain anti-inflammatory and/or autoimmune diseases.
It is known that the induction and maintenance of most inflammatory diseases are typically due to the unrestricted activity of T-lymphocytes. Therefore, it is advantageous to identify compounds which are modulators of T-lymphocyte activity for eventual use in the regulation of inflammatory diseases, including acquired immune deficiency syndrome, psoriasis, systemic lupus, erythromatosus, and rheumatoid arthritis.
(§2) The detailed experimental procedure for the above-mentioned assays is described in detail in U.S. Pat. Nos. 5,360,790 and 5,367,062 incorporated herein by reference.

[2] = system: T cells (splenic T cell proliferation, co-cultured spleen cells from two strains of mice); test: Mixed lymphocyte response (MLR); assay type: cell-based; conditions: Mus musculus, Anti-inflammatory/Anti-proliferative Activity
Source text: i Mixed lymphocyte response (MLR).
as §1
The MLR is a classical assay used to measure T cell function by studying the proliferation response of T cells which are activated in vitro by genetically disparate stimulator cells. This is accomplished by co-culturing spleen cells from two different strains of mice. Splenic T cell proliferation occurs as a result of cellular activation signals generated by the ongoing cellular interactions.
as §2

BUD-8 human fibroblast = test: BUD-8 human cell line fibroblast proliferation assay (FIB.); assay type: cell-based; conditions: Anti-inflammatory/Anti-proliferative Activity
Source text: ii BUD-8 human cell line fibroblast proliferation assay.
as §1
The skin cell fibroblast line, BUD-8, was originally derived from the normal skin of a person and can now be obtained from the American Type Culture Collection, Rockville, Md.
as §2

[3] = system: human tumor cell lines (approximately 60); test: NCI in vitro human tumor cell line screen (SRB), mean graph midpoints over all cell lines; assay type: cell-based; conditions: for CC50 / GI50 / IC (TGI): Homo sapiens, average of all cell lines, 48 h; for CC50: 50% cell death (-50% growth), read-out: log10 LC50 mean graph midpoint (converted); for IC (TGI): total cell growth inhibition (0% growth), read-out: log10 TGI mean graph midpoint (converted); for in vitro activity in words: various in vitro cell lines, IC50, average GI50, mean graph pattern
Method: In performing in vitro human tumor cell line assay, a total of approximately 60 human tumor cell lines derived from ten cancer types (leukemia, non-small cell lung cancer, small cell lung cancer, colon cancer, CNS cancer, melanoma, ovarian cancer, renal cancer, breast cancer and prostate cancer) were used in this assay. Compounds were tested at different concentrations against every cell line. All lines are inoculated into a series of standard 96-well microtiter plates on day 0, in the majority of cases at 20,000 cells/well, and then pre-incubated in the absence of testing agent for 24 hours. A testing agent was then added in five 10-fold dilutions and incubated for a further period of 48 hours. Following this, the cells are fixed in situ, washed, and dried. Sulforhodamine B (SRB, protein binding dye) is added, followed by further washing and drying of the stained adherent cell mass. The bound stain is solubilized and measured spectrophotometrically on an automatic plate reader.
For each compound, dose response curves for each cell line were measured with five different drug concentrations, and the concentration causing 50% cell growth inhibition (GI50), total cell growth inhibition (TGI, 0% growth), and 50% cell death (LC50, -50% growth) compared with the control was calculated. […] In these graphs, the mean logarithmic value of GI50 in all cell lines for each tested compound is used as the midpoint of that bar graph.

P388 Murine Leukemia = P388 Murine Leukemia in vivo
Method: Two of the compounds of the present invention (Ic and Im) were also tested against P388 Murine Leukemia.

[4] = system: SK-MEL-28 Melanoma Xenografts; test: Early Stage SK-MEL-28 Melanoma Xenografts; conditions: for Drug Deaths: of 6 mice; for Opt. % T/C: >40 considered inactive
Method: (§3) In this in vivo model Murine or human tumor fragments (30 mg) are implanted subcutaneously into the axillary region of pathogen-free immunocompetent or immunodefficient mice, respectively, on experimental day 0. Test agent treatment is initiated either on the day which is historically associated with the start of tumor growth, or when the tumor is palpable. Tumor size and body weights are obtained approximately two times per week. Tumor weights are calculated from caliper measurements of tumor dimensions in mm using the formula for a prolate ellipsoid:
(§4) (L×W^2)/2; where L is the longer of the 2 measurements
(§5) Generally, tumor size is monitored until an upper weight limit of 500 mg is attained.

[5] = system: UACC-62 Melanoma Xenografts; test: Early Stage Subcutaneous Tumor Model UACC-62 Melanoma Xenografts; conditions: for Drug Deaths: of 6 mice; for Opt. % T/C: >40 considered inactive
Method: as §3, §4, §5

[6] = system: COLO 205 Colon Tumor Xenografts; test: Early Stage SC COLO 205 Colon Tumor Xenografts; conditions: for Drug Deaths: of 6 mice; for Opt. % T/C: >40 considered inactive
Method: as §3, §4, §5

[7] = 50% cell growth inhibition, read-out: GI50 (average)
[8] = log10 of molar concentration, read-out: log10 I50 (log10 GI50 mean graph midpoint) (converted)
[9] = Ic 60, 40 and 27 mg/kg/dose, Im 120, 80 and 54 mg/kg/dose
[10] = 200 mg/kg/dose IP QD × 5, day 3
[11] = 134 mg/kg/dose IP Q4D × 3, day 6
[12] = 200 mg/kg/dose IP Q4D × 3, day 6
[13] = 200 mg/kg/dose IP Q4D × 3, day 7

CCCCCCCCCCCCOC[C@@]12O[C@@H](CN3CCCC3)[C@@H](O)[C@@H]1OC(C)(C)O2 [Ia, 2,3-O-Isopropylidene-6-deoxy-6-(1-pyrrolidinyl)-1-O-dodecyl-α-L-xylo-2-hexulofuranose]
IC50 [1]: < 1 µM | IC50 [2]: < 1 µM | IC50 (BUD-8 human fibroblast): < 3 µM | CC50 [3]: 13.2 µM | GI50 [3, 7]: 4.21 µM | GI50 [3, 8]: 0.204 µM | IC (TGI) [3]: 4.37 µM

CCCCCCCCCCCCOC[C@@]12O[C@@H](CN3CCOCC3)[C@@H](O)[C@@H]1OC(C)(C)O2 [Ic, 2,3-O-Isopropylidene-6-deoxy-6-(1-morpholinyl)-1-O-dodecyl-α-L-xylo-2-hexulofuranose]
antitumor activity (P388 Murine Leukemia; [9]): only slight antitumor activity | toxicity (P388 Murine Leukemia; [9]): toxic at the higher dose levels | maximally tolerated dose (P388 Murine Leukemia; mouse, in vivo): a maximally tolerated dose was not achieved | IC50 [1]: 10.3 µM | Drug Deaths ([4]; 90 mg/kg/dose IP QD × 5, day 3): 0 | Drug Deaths ([4]; 134 mg/kg/dose IP QD × 5, day 3): 1 | Opt. % T/C ([4]; 134 mg/kg/dose IP QD × 5, day 3, optimum on day 9): 36% | Opt. % T/C [4, 10]: Toxic | Drug Deaths [4, 10]: 6 | Opt. % T/C ([4]; Ic 90 mg/kg/dose IP QD × 5, day 3, optimum on day 16): 35% | IC50 [2]: < 1 µM | IC50 (BUD-8 human fibroblast): 14.8 µM | Drug Deaths ([5]; 90 mg/kg/dose IP Q4D × 3, day 6): 0 | Opt. % T/C ([5]; 90 mg/kg/dose IP Q4D × 3, day 6, optimum on day 16): 39% | Opt. % T/C [5, 11]: Toxic | Drug Deaths [5, 11]: 6 | Opt. % T/C [5, 12]: Toxic | Drug Deaths [5, 12]: 6 | CC50 [3]: 56.2 µM | GI50 [3, 7]: 31.6 µM | GI50 [3, 8]: 14.5 µM | IC (TGI) [3]: 29.5 µM | in vitro activity in words [3]: significant activity in various in vitro cell lines | Drug Deaths ([6]; 90 mg/kg/dose IP Q4D × 3, day 7): 0 | Drug Deaths ([6]; 134 mg/kg/dose IP Q4D × 3, day 7): 1 | Opt. % T/C ([6]; 134 mg/kg/dose IP Q4D × 3, day 7, optimum on day 29): 40% | Opt. % T/C [6, 13]: Toxic | Drug Deaths [6, 13]: 6 | Opt. % T/C ([6]; Ic 90 mg/kg/dose IP Q4D × 3, day 7, optimum on day 36): 43%

CCCCCCCCCCCCOC[C@@]12O[C@@H](CN3CCCCCC3)[C@@H](O)[C@@H]1OC(C)(C)O2 [Id, 2,3-O-Isopropylidene-6-deoxy-6-(1-hexamethyleneimino)-1-O-dodecyl-α-L-xylo-2-hexulofuranose]
IC50 [1]: < 3 µM | IC50 [2]: < 1 µM | IC50 (BUD-8 human fibroblast): < 3 µM | CC50 [3]: 10.7 µM | GI50 [3, 7]: 3.87 µM | GI50 [3, 8]: 1.82 µM | IC (TGI) [3]: 4.57 µM

CCCCCCCCCCCCOC[C@@]12O[C@@H](CNCCN3CCOCC3)[C@@H](O)[C@@H]1OC(C)(C)O2 [If, 2,3-O-Isopropylidene-6-deoxy-6-aminoethylmorpholinyl-1-O-dodecyl-α-L-xylo-2-hexulofuranose]
IC50 [1]: < 1 µM | IC50 [2]: < 1 µM | IC50 (BUD-8 human fibroblast): < 1 µM | CC50 [3]: 11 µM | GI50 [3, 7]: 4.68 µM | GI50 [3, 8]: 2.34 µM | IC (TGI) [3]: 5.13 µM

CCCCCCCCCCCCOC[C@@]12O[C@@H](CNCCN3CCCCC3)[C@@H](O)[C@@H]1OC(C)(C)O2 [Ig, 2,3-O-Isopropylidene-6-deoxy-6-aminoethylpiperidinyl-1-O-dodecyl-α-L-xylo-2-hexulofuranose]
IC50 [1]: < 3 µM | IC50 [2]: < 1 µM | IC50 (BUD-8 human fibroblast): < 3 µM | CC50 [3]: 20 µM | GI50 [3, 7]: 6.8 µM | GI50 [3, 8]: 3.39 µM | IC (TGI) [3]: 7.76 µM

CCCCCCCCCCCCOC[C@@]12O[C@@H](C)[C@@H](OCCN3CCCC3)[C@@H]1OC(C)(C)O2 [Il, 2,3-O-Isopropylidene-6-deoxy-1-O-dodecyl-4-O-ethylpyrrolidinyl-α-L-xylo-2-hexulofuranose]
IC50 [1]: < 1 µM | IC50 [2]: < 1 µM | IC50 (BUD-8 human fibroblast): < 1 µM | CC50 [3]: 28.8 µM | GI50 [3, 7]: 8.68 µM | GI50 [3, 8]: 4.07 µM | IC (TGI) [3]: 10.5 µM | in vitro activity in words [3]: significant activity

CCCCCCCCCCCCOC[C@@]12O[C@@H](C)[C@@H](OCCN3CCOCC3)[C@@H]1OC(C)(C)O2 [In, 2,3-O-Isopropylidene-6-deoxy-1-O-dodecyl-4-O-ethylmorpholinyl-α-L-xylo-2-hexulofuranose]
IC50 [1]: 10.5 µM | IC50 [2]: 3.8 µM | IC50 (BUD-8 human fibroblast): 12.9 µM | CC50 [3]: 91.2 µM | GI50 [3, 7]: 74.9 µM | GI50 [3, 8]: 36.3 µM | IC (TGI) [3]: 72.4 µM

CCCCCCCCCCCCOC[C@@]12O[C@@H](CN3CCCCCC3)[C@@H](OCCN3CCCC3)[C@@H]1OC(C)(C)O2 [Ir, 2,3-O-Isopropylidene-6-deoxy-1-O-dodecyl-4-O-ethylpyrrolidinyl-6-hexamethyleneimino-α-L-xylo-2-hexulofuranose]
IC50 [1]: < 1 µM | IC50 [2]: < 1 µM | IC50 (BUD-8 human fibroblast): < 1 µM | CC50 [3]: 21.4 µM | GI50 [3, 7]: 3.22 µM | GI50 [3, 8]: 1.78 µM | IC (TGI) [3]: 8.13 µM

CCCCCCCCCCCCOC[C@@]12O[C@@H](CN3CCCCCC3)[C@@H](OCCN3CCCCC3)[C@@H]1OC(C)(C)O2 [It, 2,3-O-Isopropylidene-6-deoxy-1-O-dodecyl-4-O-ethylpiperidinyl-6-hexamethyleneimino-α-L-xylo-2-hexulofuranose]
IC50 [1]: < 1 µM | IC50 [2]: < 1 µM | IC50 (BUD-8 human fibroblast): < 1 µM | CC50 [3]: 36.3 µM | GI50 [3, 7]: 2.38 µM | GI50 [3, 8]: 1.35 µM | IC (TGI) [3]: 7.76 µM

CCCCCCCCCCCCOC[C@@]12O[C@@H](CN3CCCCCC3)[C@@H](OCCCN3CCCCC3)[C@@H]1OC(C)(C)O2 [Iu, 2,3-O-Isopropylidene-6-deoxy-1-O-dodecyl-4-O-propylpiperidinyl-6-hexamethyleneimino-α-L-xylo-2-hexulofuranose]
IC50 [1]: < 1 µM | IC50 [2]: < 1 µM | IC50 (BUD-8 human fibroblast): < 1 µM | CC50 [3]: 28.8 µM | GI50 [3, 7]: 0.86 µM | GI50 [3, 8]: 0.501 µM | IC (TGI) [3]: 3.72 µM

CCCCCCCCCCCCOC[C@@]12O[C@@H](CN3CCCCCC3)[C@@H](OCCN3CCOCC3)[C@@H]1OC(C)(C)O2 [Iv, 2,3-O-Isopropylidene-6-deoxy-1-O-dodecyl-4-O-ethylmorpholinyl-6-hexamethyleneimino-α-L-xylo-2-hexulofuranose]
IC50 [1]: < 1 µM | IC50 [2]: < 1 µM | IC50 (BUD-8 human fibroblast): < 1 µM | CC50 [3]: 44.7 µM | GI50 [3, 7]: 3.2 µM | GI50 [3, 8]: 1.82 µM | IC (TGI) [3]: 11.5 µM

CCCCCCCCCCCCOC[C@@]12O[C@@H](CN3CCCCCC3)[C@@H](OCCCc3ccccc3)[C@@H]1OC(C)(C)O2 [Iw, 2,3-O-Isopropylidene-6-deoxy-1-O-dodecyl-4-O-phenylpropyl-6-hexamethyleneimino-α-L-xylo-2-hexulofuranose]
IC50 [1]: < 1 µM | IC50 [2]: < 1 µM | IC50 (BUD-8 human fibroblast): < 1 µM | CC50 [3]: 16.6 µM | GI50 [3, 7]: 4.18 µM | GI50 [3, 8]: 2.45 µM | IC (TGI) [3]: 10 µM
